According to patent US8362000B2, “Azetidinyl diamides as monoacylglycerol lipase inhibitors” (Janssen Pharmaceutica NV, priority 2009, dated 2013):

Target: T1, mutant MGL (Homo sapiens, UniProt Q99685, L169S/L176S)
T1 sequence (Q99685 1-303 L169S/L176S): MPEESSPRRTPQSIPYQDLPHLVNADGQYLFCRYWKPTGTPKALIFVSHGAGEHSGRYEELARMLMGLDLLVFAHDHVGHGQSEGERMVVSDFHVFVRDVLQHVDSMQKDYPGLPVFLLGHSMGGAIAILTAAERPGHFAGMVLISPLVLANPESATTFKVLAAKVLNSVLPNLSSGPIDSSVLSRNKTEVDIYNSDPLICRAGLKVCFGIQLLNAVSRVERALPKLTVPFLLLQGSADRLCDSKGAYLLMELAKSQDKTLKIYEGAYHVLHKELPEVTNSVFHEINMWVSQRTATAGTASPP
Assay: MGL ThermoFluor assay - mutant
Format: binding
Settings: ThermoFluor concentration-response, read-out: MGL mutant ThermoFluor Kd

Compound	Kd
O=C(c1ccc(CS(=O)(=O)c2cccc(C(F)(F)F)c2)cc1)N1CC(N2CCN(C(=O)c3cscn3)CC2)C1 [Cpd 977]	20000 nM
O=C(c1ccc(Cc2ccc(C(F)(F)F)cc2)cc1)N1CC(N2CCN(C(=O)c3nccs3)CC2)C1 [Cpd 985]	5 nM
O=C(c1ccc(-c2ccccc2)cc1)N1CCN(C2CN(C(=O)c3ccc[nH]3)C2)CC1 [Cpd 1383, 1-(Biphenyl-4-ylcarbonyl)-4-[1-(1H-pyrrol-2-ylcarbonyl)azetidin-3-yl]piperazine]	108 nM
O=C(c1ccccc1)C1CCC(C(=O)N2CC(N3CCN(C(=O)c4cscn4)CC3)C2)CC1 (centres unmarked) [Cpd 478]	2000 nM
O=C(c1ccc(SCc2cccc(Cl)c2)cc1)N1CC(N2CCN(C(=O)c3nccs3)CC2)C1 [Cpd 412, 1-[1-({4-[(3-Chlorobenzyl)sulfanyl]phenyl}carbonyl)azetidin-3-yl]-4-(1,3-thiazol-2-ylcarbonyl)piperazine]	10 nM
O=C(c1ccc2c(ccn2-c2ncc(F)cn2)c1)N1CC(N2CCN(C(=O)c3cscn3)CC2)C1 [Cpd 1248, 1-(5-Fluoropyrimidin-2-yl)-5-({3-[4-(1,3-thiazol-4-ylcarbonyl)piperazin-1-yl]azetidin-1-yl}carbonyl)-1H-indole]	43 nM
Cc1nc(COc2ccc(Cl)cc2)sc1C(=O)N1CC(N2CCN(C(=O)c3ccccc3)CC2)C1 [Cpd 558, 1-[1-({2-[(4-Chlorophenoxy)methyl]-4-methyl-1,3-thiazol-5-yl}carbonyl)azetidin-3-yl]-4-(phenylcarbonyl)piperazine]	333 nM
O=C(c1ccc(Oc2ccccn2)cc1)N1CC(N2CCN(C(=O)c3nccs3)CC2)C1 [Cpd 913, 1-(1-{[4-(Pyridin-2-yloxy)phenyl]carbonyl}azetidin-3-yl)-4-(1,3-thiazol-2-ylcarbonyl)piperazine]	1000 nM
O=C(c1cccc(-c2cccc(Br)n2)c1)N1CC(N2CCN(C(=O)c3nccs3)CC2)C1 [Cpd 151, 1-(1-{[3-(6-Bromopyridin-2-yl)phenyl]carbonyl}azetidin-3-yl)-4-(1,3-thiazol-2-ylcarbonyl)piperazine]	25 nM
O=C(/C=C/c1ccc2ccccc2c1)N1CC(N2CCN(C(=O)c3ccccc3)CC2)C1 [Cpd 105, 1-{1-[(2E)-3-Naphthalen-2-ylprop-2-enoyl]azetidin-3-yl}-4-(phenylcarbonyl)piperazine]	5000 nM
O=C(C#Cc1ccccc1)N1CC(N2CCN(C(=O)c3nccs3)CC2)C1 [Cpd 477]	2000 nM
O=C(c1cscn1)N1CCN(C2CN(C(=O)c3cc(Br)ccc3F)C2)CC1 [Cpd 925]	> 62500 nM
O=C(c1ccc(-c2ccccc2)cc1)N1CCN(C2CN(C(=O)c3cscn3)C2)C(c2ccccc2)C1 (centres unmarked) [Cpd 1402, 4-(Biphenyl-4-ylcarbonyl)-2-phenyl-1-[1-(1,3-thiazol-4-ylcarbonyl)azetidin-3-yl]piperazine]	2000 nM
O=C(c1nccs1)N1CCN(C2CN(C(=O)C3CCC(c4ccccc4)CC3)C2)CC1 (centres unmarked) [Cpd 475]	25 nM
O=C(c1ccccc1)N1CCN(C2CN(C(=O)c3ccc(SCc4ccc(Cl)cc4)cc3)C2)CC1 [Cpd 418]	500 nM
O=C(c1ccc(Oc2ccc(Cl)cc2)cc1)N1CC(N2CCN(C(=O)c3nccs3)CC2)C1 [Cpd 420, 1-(1-{[4-(4-Chlorophenoxy)phenyl]carbonyl}azetidin-3-yl)-4-(1,3-thiazol-2-ylcarbonyl)piperazine]	5 nM
O=C(c1ccccc1)N1CCN(C2CN(C(=O)c3ccc(-c4ccc(Cl)cc4)cc3)C2)CC1 [Cpd 78, 1-{1-[(4′-Chlorobiphenyl-4-yl)carbonyl]azetidin-3-yl}-4-(phenylcarbonyl)piperazine]	80 nM
O=C(c1cc(Br)cc(C(F)(F)F)c1)N1CC(N2CCN(C(=O)c3cscn3)CC2)C1 [Cpd 923]	9930 nM
O=C(c1ccccc1)N1CCN(C2CN(C(=O)c3ccc(-n4ccc(C(F)(F)F)n4)cc3)C2)CC1 [Cpd 622, 1-(Phenylcarbonyl)-4-[1-({4-[3-(trifluoromethyl)-1H-pyrazol-1-yl]phenyl}carbonyl)azetidin-3-yl]piperazine]	3600 nM
O=C(c1ccccc1)N1CCN(C2CN(C(=O)c3cccnc3Oc3ccccc3)C2)CC1 [Cpd 110, 1-{1-[(2-Phenoxypyridin-3-yl)carbonyl]azetidin-3-yl}-4-(phenylcarbonyl)piperazine]	5000 nM
O=C(c1ccccc1)N1CCN(C2CN(C(=O)C3CCC(c4ccc(Cl)cc4)CC3)C2)CC1 (centres unmarked) [Cpd 503]	254 nM
O=C(c1ccccc1)N1CCN(C2CN(C(=O)C3CCC(C(F)(F)F)CC3)C2)CC1 (centres unmarked) [Cpd 502]	> 76700 nM
O=C(c1ccccc1)N1CCN(C2CN(C(=O)c3ccc(CNc4cccc(Cl)c4)cc3)C2)CC1 [Cpd 549]	60 nM
O=C(c1ccc(-c2ccccc2)cc1)N1CC(N2CCN(C(=O)c3nccs3)C(c3ccccc3)C2)C1 (centres unmarked) [Cpd 1404, 4-[1-(Biphenyl-4-ylcarbonyl)azetidin-3-yl]-2-phenyl-1-(1,3-thiazol-2-ylcarbonyl)piperazine]	> 31200 nM
O=C(c1ccc(OCc2cccc(Cl)c2)cc1)N1CC(N2CCN(C(=O)C(F)(F)F)CC2)C1 [Cpd 958]	216 nM
O=C(c1ccc(Oc2cccc(Cl)c2)cc1)N1CC(N2CCN(C(=O)c3nccs3)CC2)C1 [Cpd 421, 1-(1-{[4-(3-Chlorophenoxy)phenyl]carbonyl}azetidin-3-yl)-4-(1,3-thiazol-2-ylcarbonyl)piperazine]	4 nM
O=C(c1ccc(C2CCCCC2)cc1)N1CC(N2CCN(C(=O)c3ccccn3)CC2)C1 [Cpd 4, 1-{1-[(4-Cyclohexylphenyl)carbonyl]azetidin-3-yl}-4-(pyridin-2-ylcarbonyl)piperazine]	143 nM
COc1cc(C(=O)N2CC(N3CCN(C(=O)c4cscn4)CC3)C2)ccc1Br [Cpd 23, 1-{1-[(4-Bromo-3-methoxyphenyl)carbonyl]azetidin-3-yl}-4-(1,3-thiazol-4-ylcarbonyl)piperazine]	5000 nM

Same assay, conditions: ThermoFluor thermal stability binding assay, read-out: MGL mutant ThermoFluor Kd

Compound	Kd
O=C(c1ccccc1)N1CCN(C2CN(C(=O)c3ccc(OCc4ccc(C(F)(F)F)c(F)c4)cc3)C2)CC1 [Cpd 395]	159 nM
Cc1cc(C(=O)N2CC(N3CCN(C(=O)c4cscn4)CC3)C2)ccc1-c1cccc(C(F)(F)F)c1 [Cpd 242, 1-(1-{[2-Methyl-3′-(trifluoromethyl)biphenyl-4-yl]carbonyl}azetidin-3-yl)-4-(1,3-thiazol-4-ylcarbonyl)piperazine]	4 nM
O=C(c1nccs1)N1CCN(C2CN(C(=O)c3cccc4nc(Cc5ccc(Cl)cc5)[nH]c34)C2)CC1 [Cpd 991]	200 nM
O=C(c1nccs1)N1CCN(C2CN(C(=O)c3cnn(-c4ccccc4)c3C(F)(F)F)C2)CC1 [Cpd 1392]	659 nM
O=C(c1ccccc1)N1CCN(C2CN(C(=O)c3ccc(OCc4cccc(Cl)c4Cl)c(F)c3)C2)CC1 [Cpd 483]	20 nM
O=C1Cc2cc(C(=O)N3CC(N4CCN(C(=O)c5nccs5)CC4)C3)ccc2N1 [Cpd 918]	2500 nM
O=C(c1ccccc1)N1CCN(C2CN(C(=O)c3ccc(OCc4ccncc4)cc3)C2)CC1 [Cpd 396]	4270 nM
CS(=O)(=O)c1cccc(-c2ccc(C(=O)N3CC(N4CCN(C(=O)c5ccccc5)CC4)C3)cc2)c1 [Cpd 231, 1-(1-{[3′-(Methylsulfonyl)biphenyl-4-yl]carbonyl}azetidin-3-yl)-4-(phenylcarbonyl)piperazine]	143 nM
CC(C)(C)OC(=O)N1CCC(c2cccc(C(=O)N3CC(N4CCN(C(=O)c5ccccc5)CC4)C3)c2)CC1 [Cpd 538]	2590 nM
O=C(c1nccs1)N1CCN(C2CN(C(=O)c3ccc(-c4cccc(C(F)(F)F)c4)cc3F)C2)CC1 [Cpd 244, 1-(1-{[3-Fluoro-3′-(trifluoromethyl)biphenyl-4-yl]carbonyl}azetidin-3-yl)-4-(1,3-thiazol-2-ylcarbonyl)piperazine]	2 nM
O=C(c1cscn1)N1CCN(C2CN(C(=O)c3cccc4nc(-c5ccc(Cl)cc5)oc34)C2)CC1 [Cpd 1380, 2-(4-Chlorophenyl)-7-({3-[4-(1,3-thiazol-4-ylcarbonyl)piperazin-1-yl]azetidin-1-yl}carbonyl)-1,3-benzoxazole]	246 nM
O=C(c1nccs1)N1CCN(C2CN(C(=O)c3sc4cc(-c5ccccc5)ccc4c3Cl)C2)CC1 [Cpd 343, 1-{1-[(3-Chloro-6-phenyl-1-benzothiophen-2-yl)carbonyl]azetidin-3-3yl}-4-(1,3-thiazol-2-ylcarbonyl)piperazine]	0.4 nM
O=C(c1cscn1)N1CCN(C2CN(C(=O)c3csc(-c4cc(Cl)cc(Cl)c4)n3)C2)CC1 [Cpd 1395]	1810 nM
Cc1cc(C(=O)N2CC(N3CCN(C(=O)c4cscn4)CC3)C2)ccc1-c1ccc(Cl)c(C(F)(F)F)c1 [Cpd 258, 1-(1-{[4′-Chloro-2-methyl-3′-(trifluoromethyl)biphenyl-4-yl]carbonyl}azetidin-3-yl)-4-(1,3-thiazol-4-ylcarbonyl)piperazine]	3.3 nM
CC(=O)Nc1cccc(-c2ccc(C(=O)N3CC(N4CCN(C(=O)c5nccs5)CC4)C3)cc2)c1 [Cpd 234, N-[4′-({3-[4-(1,3-Thiazol-2-ylcarbonyl)piperazin-1-yl]azetidin-1-yl}carbonyl)biphenyl-3-yl]acetamide]	47.6 nM
O=C(c1ccc(-c2ccccc2)cc1)N1CC(N2CCN(C(=O)c3cscn3)C(c3ccccc3)C2)C1 (centres unmarked) [Cpd 1481]	> 31200 nM
CC(=O)Nc1nc(C(=O)N2CCN(C3CN(C(=O)c4ccc(-c5ccccc5)cc4)C3)CC2)cs1 [Cpd 480]	> 76700 nM
O=C(c1ccccc1)N1CCN(C2CN(C(=O)c3ccc(OCc4cccc(OC(F)(F)F)c4)cc3)C2)CC1 [Cpd 393]	90.9 nM
CS(=O)(=O)N1CCCc2cc(C(=O)N3CC(N4CCN(C(=O)c5cscn5)CC4)C3)ccc21 [Cpd 362]	2400 nM
